Data as given in patent publication US20100069297A1, “Selective Inhibition of TLR4 Signaling” (priority 2005, published 2010).

Experiments:
Assay type in all cases: cell-based, mouse
[1] = system: TLR4 signaling (LPS-induced IL-1β, MIP-1β, IFN-β, RANTES mRNA); assay: LPS-induced gene expression in primary murine macrophages, real-time PCR
Method: FIG. 1. Effect of blocking peptides on the cytokine induction by LPS. Thioglycollate-elicited primary murine macrophages were preincubated in the presence of 40 μMof BP for one hour before stimulation with 10 ng/ml of LPS. (A) Quantitative real-time PCR analysis of gene expression. (B) Secretion of IL-1β and IL-6. Concentration of the cytokines was measured after overnight incubation of the cells in the presence of LPS and the peptides. (C) Sensitivity of the LPS-stimulated expression of IFN-β and IL-1β mRNA to varying concentrations of TRAM and MyD88 BP. Total mRNA was isolated 1 hour after LPS stimulation (A and C). *p<0.05; **p<0.01.
FIG. 6. Effect of mutant TRAM BB loop peptides on LPS-induced activation of IL1-β and IFN-β mRNA. Details of the experiments are as described in the legend for FIG. 1, except for the cells were preincubated with peptides only for 30 minutes.
C3H/OuJ mice were purchased from the Jackson Laboratory (Bar Harbor, Me.). Thioglycollate-elicited peritoneal macrophages were harvested and cultured in the presence of E. coli K235 LPS or Pam3Cys as described previously (Salkowski et al., 1999, J. Immunol. 164, 1529).
(§1) Total cellular RNA was extracted from macrophage cultures as described elsewhere and reversed transcribed using AMV Reverse Transcriptase (Promega, Madison, Wis.) and poly-T priming as recommended by the manufacturer. The resulting cDNA was quantified by real time PCR using SYBR Green PCR Master Mix (Applied Biosystems) and ABI Prism 7900HT cycler. Primers for detection of IL-1β, IFN-β, MIP-1β, […]RANTES, and HPRT mRNAs were designed using the Primer Express 2.0 program (Applied Biosystems). Relative gene expression was calculated using ΔCt method with HPRT as a housekeeping gene (1.8̂(CtHPRT−CtGene)) Statistical analysis was performed by one way ANOVA with repeated measures, followed by Dunnett's multiple comparison post hoc test with p≦0.05 chosen as the level of significance.
Mice with targeted mutations in MyD88 (Kawai et al., 2001, supra; Toshchakov et al., 2002, supra) or TIRAP (Yamamoto et al., 2002, Nature 420, 324) retain the capacity to signal through the MyD88-independent pathway. […] Therefore, the first question we sought to address experimentally is whether interactions of the BB-loops of the TIR domains of these adapters affect protein interactions leading to gene expression. To this end, we designed cell permeable peptides whose sequences correspond to the BB-loops of each adapter molecule and measured the ability of each BP to interfere with the induction of immediate response genes induced via MyD88-dependent and independent pathways. […] All BB-loop-containing peptides exerted an inhibitory effect on LPS-induced expression of MyD88-dependent IL-1β and […], as well as MyD88-independent IFN-β and RANTES mRNA, as measured by real-time PCR (FIG. 1A).

[2] = system: TLR4 signaling (IRF-3 dimerization); assay: LPS-induced dimerization of IRF-3, native PAGE; settings: 100 ng/ml LPS, 1.5 hr
Method: (§2) FIG. 3. Effect of blocking peptides on activation of IRF-3 and IRF-1. […] Primary mouse macrophages were stimulated with 100 ng/ml of LPS. Seventeen μg of total protein was loaded per lane of the native gel. Other details are as described in the legend for FIG. 1.
Native PAGE for detection of IRF-3 activation was performed with minor modifications (Iwamura et al., 2001, Genes Cells 6, 375). One×10^7 thioglycollate-elicited cells were plated into a 6 cm dish and washed with PBS to remove non-adherent cells. Primary macrophages were stimulated with 100 ng/ml of LPS for 1.5 hr and lysed in buffer containing 50 mM TRIS-HCl pH 7.5, 150 mM NaCl, 1 mM EDTA, 1% NP-40, 1 mM sodium orthovanadate and 1× Complete protease inhibitor cocktail (Roche, Mannheim, Germany). Lysates were mixed with native lysis buffer (Bio-Rad, Hercules, Calif.) supplemented with 1% deoxycholate. Fifteen to 20 μg protein per lane was electrophoresed on a non-reducing gel and immunoblotted. IRF-3 dimers and monomers were detected using rabbit anti-IRF-3 antibody (Zymed Laboratories) by Western analysis.
Interferon Regulatory Factors (IRFs) were first identified as important transcriptional mediators of the antiviral immune response (reviewed in Taniguchi et al., 2001, Annu. Rev. Immunol. 19, 623). Later, it was recognized that this family of transcription factors plays an essential role in signal transduction mediated by different TLRs. IRF-1 is regulated transcriptionally by signaling from different TLRs, as well as by cytokines induced by TLR engagement (e.g., IL-1, TNF, and IFN-β) (Fujita et al., 1989, Proc. Natl. Acad. Sci. USA 86, 9936). In contrast, IRF-3 is constitutively expressed in many cell types (Au et al., 1995, Proc. Natl. Acad. Sci. USA 92, 11675). Upon stimulation through TLR4 or TLR3, IRF-3 is phosphorylated at multiple sites in its C-terminus, and this modification enables it to dimerize and translocate to the nucleus where it targets IRF-3-responsive genes (Kawai et al., 2001, supra; Lin et al., 1999, Mol. Cell. Biol. 19, 2465).

[3] = system: TLR2 signaling (Pam3Cys-induced IL-1β mRNA); assay: Pam3Cys-induced cytokine mRNA expression, real-time PCR; settings: 40 μM, Pam3Cys
Method: (§3) FIG. 4. Comparative effect of BPs on TLR2-vs. TLR4-mediated activation of MAPKs (A) and IL-1β mRNA expression (B). For Western blot analysis, 4.5 x10^6 primary macrophages were preincubated without or with 40 μM BP and stimulated for 30 min with LPS (10 ng/ml) or Pam3Cys (P3C; 150 ng/ml). The results shown are a representative blot of three separate experiments. Experimental details for FIG. 4B are the same as reported in the legend to FIG. 1A.
as §1
Similar to their effect on activation of MAPKs, BPs were much weaker inhibitors with respect to Pam3Cys- vs. LPS-induced expression of IL-1β mRNA.

[4] = system: TLR4 signaling (IRF-1 protein); assay: LPS-induced upregulation of IRF-1 protein, SDS-PAGE/Western; settings: 100 ng/ml LPS, 1.5 h
Method: as §2
(§4) SDS-PAGE and Western blot analysis were performed as described previously (Medvedev et al., 2001, J. Immunol. 167, 2257) with minor modifications. Antibodies for detection of activated MAPKs (pERK, pJNK and pP38) were purchased from Cell Signaling Technology (Beverly, Mass.). IRF-1 was detected using a rabbit polyclonal antibody from Santa-Cruz (Santa Cruz, Calif.). Antibody for detection of tyrosine-701 phosphorylated STAT1 was purchased from Zymed Laboratories (San Francisco, Calif.).
Importantly, MyD88 knockout macrophages are capable of inducing IRF-1 mRNA (Yamamoto et al., 2003, supra).

[5] = system: TLR4 signaling (LPS-induced phosphorylation of ERK, JNK, p38); assay: LPS-stimulated activation of MAPKs (pERK, pJNK, pP38), Western blot; settings: 40 μM, 1 h preincubation, LPS 10 ng/ml
Method: (§5) FIG. 2. Effect of blocking peptides on the LPS-stimulated activation of MAPKs and Tyr701 STAT-1. Ten μg of total protein was loaded per lane. A representative blot of three separate experiments is shown. Other details are given in the Materials and Methods section and legend for FIG. 1.
as §3
FIG. 5. Effect of mutated TRAM BB loop peptides on LPS-induced activation of ERK. Details of the experiment are as in legend for FIG. 4, except for the cells were preincubated with peptides only for 30 minutes.
as §4
Using antibodies specific for the phosphorylated (activated) forms of JNK, ERK, and p38, we next sought to examine the effect of BB-loop-containing inhibitory peptides on LPS-stimulated activation of MAPKs. LPS induces quick and transient activation of MAPKs in primary macrophages (FIG. 2A) that was not affected by the addition of CP. […] The TIRAP BP was the weakest BP; all MAPKs were activated in the presence of it, although to a lesser extent when compared to CP.

[6] = system: TLR4 signaling (LPS-induced STAT-1 phosphorylation); assay: LPS-induced phosphorylation of STAT-1, Western blot; settings: 40 μM BP
Method: as §5, §4

Sequence: RQIKIWFQNRRMKWKKVSDRDVLPGTCVWS (MyD88 blocking peptide) [MyD88-BP]
- inhibitory effect on LPS-induced expression of IL-1β, MIP-1β, IFN-β and RANTES mRNA ([1]; 40 μM BP, 1 h preincubation, 10 ng/ml LPS, mRNA 1 h after LPS): comparable or only slightly less inhibitory
- IL-1β mRNA expression in LPS-stimulated cells, of the level detected in the presence of the CP ([1]; 40 μM, LPS 10 ng/ml): < 5%
- inhibition of LPS-induced dimerization of IRF-3 [2]: significantly inhibited
- IL-1β gene expression in Pam3Cys-stimulated cells, of control levels [3]: approximately 25%
- effect on Pam3Cys-induced expression of IL-1β mRNA [3]: statistically significant inhibitory effect
- effect on LPS-induced upregulation of IRF-1 protein [4]: strongest inhibitors
- effect on LPS-induced activation (phosphorylation) of MAPKs (ERK, JNK) [5]: strongly blocked
- inhibition of LPS-induced Tyr701 phosphorylation of STAT-1 [6]: highly effective
